# ChEMBL document CHEMBL4825673, “Total and Semisyntheses of Polymyxin Analogues with 2-Thr or 10-Thr Modifications to Decipher the Structure-Activity Relationship and Improve the Antibacterial Activity” (J Med Chem, 2021)
# Tested on: Pseudomonas aeruginosa
# Assay: Antibacterial activity against Pseudomonas aeruginosa PAO1 assessed as inhibition of bacterial growth incubated for 24 hrs by broth microdilution method
# Format: functional
# Conditions: read-out: MIC100
row,SMILES,MIC
1,CC(C)CCCCC(=O)N[C@@H](CCN)C(=O)N[C@H](C(=O)N[C@@H](CCN)C(=O)N[C@H]1CCNC(=O)[C@H]([C@@H](C)OC(=O)[C@H](C)N)NC(=O)[C@H](CCN)NC(=O)[C@H](CCN)NC(=O)[C@H](CC(C)C)NC(=O)[C@@H](Cc2ccccc2)NC(=O)[C@H](CCN)NC1=O)[C@@H](C)OC(=O)[C@H](C)N,2 µg/mL
2,CC[C@H](C)CCCCC(=O)N[C@@H](CCN)C(=O)N[C@H](C(=O)N[C@@H](CCN)C(=O)N[C@H]1CCNC(=O)[C@H]([C@@H](C)O)NC(=O)[C@H](CCN)NC(=O)[C@H](CCN)NC(=O)[C@H](CC(C)C)NC(=O)[C@@H](Cc2ccccc2)NC(=O)[C@H](CCN)NC1=O)[C@@H](C)OC(=O)[C@@H](N)[C@@H](C)CC,2 µg/mL
3,CC[C@H](C)CCCCC(=O)N[C@@H](CCN)C(=O)N[C@H](C(=O)N[C@@H](CCN)C(=O)N[C@H]1CCNC(=O)[C@H]([C@@H](C)OC(=O)[C@@H]2CCCN2)NC(=O)[C@H](CCN)NC(=O)[C@H](CCN)NC(=O)[C@H](CC(C)C)NC(=O)[C@@H](Cc2ccccc2)NC(=O)[C@H](CCN)NC1=O)[C@@H](C)OC(=O)[C@@H]1CCCN1,2 µg/mL
4,CCCCCCCC(=O)N[C@@H](CCN)C(=O)NCC(=O)N[C@@H](CCN)C(=O)N[C@H]1CCNC(=O)[C@H]([C@@H](C)O)NC(=O)[C@H](CCN)NC(=O)[C@H](CCN)NC(=O)[C@H](CC(C)C)NC(=O)[C@@H](Cc2ccccc2)NC(=O)[C@H](CCN)NC1=O,64 µg/mL
5,CC[C@H](C)CCCCC(=O)N[C@@H](CCN)C(=O)N[C@H](C(=O)N[C@@H](CCN)C(=O)N[C@H]1CCNC(=O)[C@H]([C@@H](C)O)NC(=O)[C@H](CCN)NC(=O)[C@H](CCN)NC(=O)[C@H](CC(C)C)NC(=O)[C@@H](Cc2ccccc2)NC(=O)[C@H](CCN)NC1=O)[C@@H](C)OC(=O)[C@@H](N)[C@@H](C)O,2 µg/mL
6,CC[C@H](C)[C@H](N)C(=O)O[C@H](C)[C@H](NC(=O)[C@H](CCN)NC(=O)CCCCC(C)C)C(=O)N[C@@H](CCN)C(=O)N[C@H]1CCNC(=O)[C@H]([C@@H](C)O)NC(=O)[C@H](CCN)NC(=O)[C@H](CCN)NC(=O)[C@H](CC(C)C)NC(=O)[C@@H](Cc2ccccc2)NC(=O)[C@H](CCN)NC1=O,2 µg/mL
7,CC(NCC[C@H](NC(=O)[C@H](CCN)NC(=O)CCCCC(C)C)C(=O)N[C@@H](CCN)C(=O)N[C@H]1CCNC(=O)[C@H]([C@@H](C)O)NC(=O)[C@H](CCN)NC(=O)[C@H](CCN)NC(=O)[C@H](CC(C)C)NC(=O)[C@@H](Cc2ccccc2)NC(=O)[C@H](CCN)NC1=O)=C1C(=O)CC(C)(C)CC1=O,8 µg/mL
8,CC[C@H](C)CCCCC(=O)N[C@@H](CCN)C(=O)N[C@H](C(=O)N[C@@H](CCN)C(=O)N[C@H]1CCNC(=O)[C@H]([C@@H](C)O)NC(=O)[C@H](CCN)NC(=O)[C@H](CCN)NC(=O)[C@H](CC(C)C)NC(=O)[C@@H](Cc2ccccc2)NC(=O)[C@H](CCN)NC1=O)[C@@H](C)OC(=O)[C@H](C)N,4 µg/mL
9,CC[C@H](C)CCCCC(=O)N[C@@H](CCN)C(=O)N[C@H](C(=O)N[C@@H](CCN)C(=O)N[C@H]1CCNC(=O)[C@H]([C@@H](C)O)NC(=O)[C@H](CCN)NC(=O)[C@H](CCN)NC(=O)[C@H](CC(C)C)NC(=O)[C@@H](Cc2ccccc2)NC(=O)[C@H](CCN)NC1=O)[C@@H](C)OC(=O)[C@@H](N)C(C)C,2 µg/mL
10,CC(C)CCCCC(=O)N[C@@H](CCN)C(=O)N[C@@H](CCN)C(=O)N[C@@H](CCN)C(=O)N[C@H]1CCNC(=O)[C@H]([C@@H](C)O)NC(=O)[C@H](CCN)NC(=O)[C@H](CCN)NC(=O)[C@H](CC(C)C)NC(=O)[C@@H](Cc2ccccc2)NC(=O)[C@H](CCN)NC1=O,128 µg/mL
11,CCCCCCCC(=O)N[C@@H](CCN)C(=O)N[C@@H](CO)C(=O)N[C@@H](CCN)C(=O)N[C@H]1CCNC(=O)[C@H]([C@@H](C)O)NC(=O)[C@H](CCN)NC(=O)[C@H](CCN)NC(=O)[C@H](CC(C)C)NC(=O)[C@@H](Cc2ccccc2)NC(=O)[C@H](CCN)NC1=O,2 µg/mL
12,CC[C@H](C)CCCCC(=O)N[C@@H](CCN)C(=O)N[C@H](C(=O)N[C@@H](CCN)C(=O)N[C@H]1CCNC(=O)[C@H]([C@@H](C)O)NC(=O)[C@H](CCN)NC(=O)[C@H](CCN)NC(=O)[C@H](CC(C)C)NC(=O)[C@@H](Cc2ccccc2)NC(=O)[C@H](CCN)NC1=O)[C@@H](C)OC(=O)[C@@H](N)CS,2 µg/mL
13,CC(C)CCCCC(=O)N[C@@H](CCN)C(=O)N[C@H](C(=O)N[C@@H](CCN)C(=O)N[C@H]1CCNC(=O)[C@H]([C@@H](C)OC(=O)[C@@H]2CCCN2)NC(=O)[C@H](CCN)NC(=O)[C@H](CCN)NC(=O)[C@H](CC(C)C)NC(=O)[C@@H](Cc2ccccc2)NC(=O)[C@H](CCN)NC1=O)[C@@H](C)OC(=O)[C@@H]1CCCN1,2 µg/mL
14,CCCCCCCC(=O)N[C@@H](CCN)C(=O)N[C@H](C(=O)N[C@@H](CCN)C(=O)N[C@H]1CCNC(=O)[C@H](CCSC)NC(=O)[C@H](CCN)NC(=O)[C@H](CCN)NC(=O)[C@H](CC(C)C)NC(=O)[C@@H](Cc2ccccc2)NC(=O)[C@H](CCN)NC1=O)[C@@H](C)O,4 µg/mL
15,CC(C)CCCCC(=O)N[C@@H](CCN)C(=O)N[C@H](C(=O)N[C@@H](CCN)C(=O)N[C@H]1CCNC(=O)[C@H]([C@@H](C)O)NC(=O)[C@H](CCN)NC(=O)[C@H](CCN)NC(=O)[C@H](CC(C)C)NC(=O)[C@@H](Cc2ccccc2)NC(=O)[C@H](CCN)NC1=O)[C@@H](C)OC(=O)[C@@H](N)[C@@H](C)O,2 µg/mL
16,CC[C@H](C)CCCCC(=O)N[C@@H](CCN)C(=O)N[C@H](C(=O)N[C@@H](CCN)C(=O)N[C@H]1CCNC(=O)[C@H]([C@@H](C)OC(=O)[C@H](C)N)NC(=O)[C@H](CCN)NC(=O)[C@H](CCN)NC(=O)[C@H](CC(C)C)NC(=O)[C@@H](Cc2ccccc2)NC(=O)[C@H](CCN)NC1=O)[C@@H](C)OC(=O)[C@H](C)N,2 µg/mL
17,CC(N[C@@H](CCN)C(=O)N[C@H](C(=O)N[C@@H](CCN)C(=O)N[C@H]1CCNC(=O)[C@H]([C@@H](C)O)NC(=O)[C@H](CCN)NC(=O)[C@H](CCN)NC(=O)[C@H](CC(C)C)NC(=O)[C@@H](Cc2ccccc2)NC(=O)[C@H](CCN)NC1=O)[C@@H](C)O)=C1C(=O)CC(C)(C)CC1=O,32 µg/mL
18,CCCCCCCC(=O)N[C@@H](CCN)C(=O)N[C@H](C(=O)N[C@@H](CCN)C(=O)N[C@H]1CCNC(=O)[C@H](CC(=O)O)NC(=O)[C@H](CCN)NC(=O)[C@H](CCN)NC(=O)[C@H](CC(C)C)NC(=O)[C@@H](Cc2ccccc2)NC(=O)[C@H](CCN)NC1=O)[C@@H](C)O,64 µg/mL
19,CC[C@H](C)CCCCC(=O)N[C@@H](CCN)C(=O)N[C@H](C(=O)N[C@@H](CCN)C(=O)N[C@H]1CCNC(=O)[C@H]([C@@H](C)OC(=O)CN)NC(=O)[C@H](CCN)NC(=O)[C@H](CCN)NC(=O)[C@H](CC(C)C)NC(=O)[C@@H](Cc2ccccc2)NC(=O)[C@H](CCN)NC1=O)[C@@H](C)OC(=O)CN,2 µg/mL
20,CC[C@H](C)CCCCC(=O)N[C@@H](CCN)C(=O)N[C@H](C(=O)N[C@@H](CCN)C(=O)N[C@H]1CCNC(=O)[C@H]([C@@H](C)O)NC(=O)[C@H](CCN)NC(=O)[C@H](CCN)NC(=O)[C@H](CC(C)C)NC(=O)[C@@H](Cc2ccccc2)NC(=O)[C@H](CCN)NC1=O)[C@@H](C)OC(=O)[C@@H]1CCCN1,2 µg/mL
21,CC(C)CCCCC(=O)N[C@@H](CCN)C(=O)N[C@H](C(=O)N[C@@H](CCN)C(=O)N[C@H]1CCNC(=O)[C@H]([C@@H](C)OC(=O)[C@@H](N)CC(=O)O)NC(=O)[C@H](CCN)NC(=O)[C@H](CCN)NC(=O)[C@H](CC(C)C)NC(=O)[C@@H](Cc2ccccc2)NC(=O)[C@H](CCN)NC1=O)[C@@H](C)OC(=O)[C@@H](N)CC(=O)O,4 µg/mL
22,CC(C)C[C@@H]1NC(=O)[C@@H](Cc2ccccc2)NC(=O)[C@H](CCN)NC(=O)[C@@H](NC(=O)[C@H](CCN)NC(=O)[C@@H](NC(=O)[C@H](CCN)NC(=O)CCCCCCCN(Cc2ccccn2)Cc2ccccn2)[C@@H](C)O)CCNC(=O)[C@H]([C@@H](C)O)NC(=O)[C@H](CCN)NC(=O)[C@H](CCN)NC1=O,32 µg/mL
23,CC(C)CCCCC(=O)N[C@@H](CCN)C(=O)N[C@@H](CCC(N)=O)C(=O)N[C@@H](CCN)C(=O)N[C@H]1CCNC(=O)[C@H]([C@@H](C)O)NC(=O)[C@H](CCN)NC(=O)[C@H](CCN)NC(=O)[C@H](CC(C)C)NC(=O)[C@@H](Cc2ccccc2)NC(=O)[C@H](CCN)NC1=O,128 µg/mL
24,CC[C@H](C)CCCCC(=O)N[C@@H](CCN)C(=O)N[C@H](C(=O)N[C@@H](CCN)C(=O)N[C@H]1CCNC(=O)[C@H]([C@@H](C)O)NC(=O)[C@H](CCN)NC(=O)[C@H](CCN)NC(=O)[C@H](CC(C)C)NC(=O)[C@@H](Cc2ccccc2)NC(=O)[C@H](CCN)NC1=O)[C@@H](C)OC(=O)[C@@H](N)CC(C)C,4 µg/mL
25,CC(C)CCCCC(=O)N[C@@H](CCN)C(=O)N[C@@H](CC(=O)O)C(=O)N[C@@H](CCN)C(=O)N[C@H]1CCNC(=O)[C@H]([C@@H](C)O)NC(=O)[C@H](CCN)NC(=O)[C@H](CCN)NC(=O)[C@H](CC(C)C)NC(=O)[C@@H](Cc2ccccc2)NC(=O)[C@H](CCN)NC1=O,64 µg/mL
26,CC[C@H](C)CCCCC(=O)N[C@@H](CCN)C(=O)N[C@H](C(=O)N[C@@H](CCN)C(=O)N[C@H]1CCNC(=O)[C@H]([C@@H](C)O)NC(=O)[C@H](CCN)NC(=O)[C@H](CCN)NC(=O)[C@H](CC(C)C)NC(=O)[C@@H](Cc2ccccc2)NC(=O)[C@H](CCN)NC1=O)[C@@H](C)OC(=O)[C@@H](N)Cc1c[nH]cn1,2 µg/mL
27,CC[C@H](C)CCCCC(=O)N[C@@H](CCN)C(=O)N[C@H](C(=O)N[C@@H](CCN)C(=O)N[C@H]1CCNC(=O)[C@H]([C@@H](C)O)NC(=O)[C@H](CCN)NC(=O)[C@H](CCN)NC(=O)[C@H](CC(C)C)NC(=O)[C@@H](Cc2ccccc2)NC(=O)[C@H](CCN)NC1=O)[C@@H](C)OC(=O)[C@@H](N)CO,1 µg/mL
28,CC[C@H](C)CCCCC(=O)N[C@@H](CCN)C(=O)N[C@H](C(=O)N[C@@H](CCN)C(=O)N[C@H]1CCNC(=O)[C@H]([C@@H](C)O)NC(=O)[C@H](CCN)NC(=O)[C@H](CCN)NC(=O)[C@H](CC(C)C)NC(=O)[C@@H](Cc2ccccc2)NC(=O)[C@H](CCN)NC1=O)[C@@H](C)OC(=O)[C@@H](N)Cc1c[nH]c2ccccc12,2 µg/mL
29,CCCCCCCC(=O)N[C@@H](CCN)C(=O)N[C@@H](CS)C(=O)N[C@@H](CCN)C(=O)N[C@H]1CCNC(=O)[C@H]([C@@H](C)O)NC(=O)[C@H](CCN)NC(=O)[C@H](CCN)NC(=O)[C@H](CC(C)C)NC(=O)[C@@H](Cc2ccccc2)NC(=O)[C@H](CCN)NC1=O,8 µg/mL
